This test concerns the target T1, HIV-1 reverse transcriptase (Human immunodeficiency virus type 1 group M subtype B, UniProt P04585).
T1 construct: equivalent to 2.85nM for an equimolar mixture of p66 and p51 polypeptides; host or cells: E. coli
Description: Assay for reverse transcriptase activity (incorporation of radioactive dGMP from [3H]dGTP into Poly (rC). p(dG)12-18). The note with it: for IC50: approximate, from plot of % inhibition against concentration of inhibitor, 1.02µM [3H]dGTP, 65 minutes at 37°C. The class given is biochemical, human immunodeficiency virus type 1 (HIV-1). The procedure: Chemicals [^3H]dGTP (16.3 Ci/mmol) was purchased from Amersham International, Aylesbury, U.K. Template primer Poly (rC). p(dG)12-18 (1:1, rC:dG ratio) and 2',3'-dideoxyguanosine-5-triphosphate (ddGTP) were obtained from Pharmacia Ltd., Milton Keynes, U.K. Penciclovir triphosphate (PCV-TP) was prepared in the laboratories of SmithKline Beecham Pharmaceuticals, Great Burgh, United Kingdom.
Reverse transcriptase Purified, E. coli expressed HIV-1 reverse transcriptase (RT) was supplied by the Protein Biochemistry Department of SmithKline Beecham Pharmaceuticals, Upper Merion, U.S.A. The enzyme was stored and diluted in a buffer containing 50mM Tris-HCl (pH 8.0), 10mM Hepes, 110mM NaCl, 5.7mM DTT, 0.3mM EDTA, 0.06% Triton X-100, 50% glycerol.
Assay for reverse transcriptase activity The reaction mixture for the HIV-1 RT assay contained in a volume of 120µl: 33mM Tris HCl (pH 8.0), 100mM KCl, 3.3mM MgCl2, 3.3mM dithiothreitol, 0.2mM glutathione, 0.33mM EGTA (ethylene glycol-bis-(β-aminoethyl ether) N,N-tetra acetic acid), 0.033% Triton X-100, 1.02µM [^3H]dGTP, 0-12.39µM inhibitors ddGTP, PCV-TP, 0.3 A260 units/ml Poly (rC). p(dG)12-18 and 167ng/ml RT (equivalent to 2.85nM for an equimolar mixture of p66 and p51 polypeptides). The reaction mixtures without RT were prepared in the microwells of a 96-well plate and preincubated at 37°C before the reactions were started by the addition of 20µl of the enzyme solution. The plates were then incubated for 65 minutes at 37°C. The incorporation rate was linear for the uninhibited control reaction over this time period. The reactions were terminated by the addition of 40µl of EDTA solution (0.2M, pH7.0). The individual reaction mixtures were transferred to a DEAE filter mat (1205-405, LKB Wallac, Finland), prewetted with 0.3M NaCl/0.03M Na citrate, using a cell harvester (1295-001, LKB Wallac). The filter mat was washed three times in the NaCl/Na citrate buffer and then once in 95% ethanol. Scintillation fluid (Beta Plate Scint, LKB Wallac) was added to the dried filter, and the reaction mixtures assayed for incorporation of radioactive dGMP in an LKB 1205 Beta Plate Liquid Scintillation Counter.

SMILES strings stand for the structures.

As a reminder, the inhibition is the relative decrease from the control value, in per cent. As usually defined, the IC50 is the concentration that inhibits the measured activity by half. As to `Nc1nc2c(ncn2[C@H]2CC[C@@H](COP(=O)(O)OP(=O)(O)OP(=O)(O)O)O2)c(=O)[nH]1` [ddGTP, 2',3'-dideoxyguanosine-5-triphosphate, reference compound], the 50% inhibitory concentration (IC50) is 0.025 µM. Under “1 nM ddGTP”, the inhibition at 0.001 µM turned out to be 0%. Further, the “Incorporation of dGMP” value (1 nM ddGTP, uninhibited control 117892) is reported as 119726 c.p.m. Where the note is “10 nM ddGTP”, the inhibition at 0.01 µM is 23.7%. The “Incorporation of dGMP” value (10 nM ddGTP, uninhibited control 117892) was 89949 c.p.m. Moreover, the inhibition at 0.025 µM (25 nM ddGTP) worked out at 50.2%. Further, where the note is “25 nM ddGTP, uninhibited control 117892”, the “Incorporation of dGMP” value is reported as 58703 c.p.m. Under “50 nM ddGTP”, the inhibition at 0.05 µM turned out to be 70.2%. Moreover, the “Incorporation of dGMP” value (50 nM ddGTP, uninhibited control 117892) turned out to be 35091 c.p.m. Further, the inhibition at 0.075 µM (75 nM ddGTP) came to 77.8%. Moreover, the “Incorporation of dGMP” value (75 nM ddGTP, uninhibited control 117892) is 26132 c.p.m. For the same compound, the inhibition at 0.1 µM (100 nM ddGTP) was 81.2%. In addition, the “Incorporation of dGMP” value (100 nM ddGTP, uninhibited control 117892) came to 22161 c.p.m.
For `Nc1nc2c(ncn2CCC(CO)COP(=O)(O)OP(=O)(O)OP(=O)(O)O)c(=O)[nH]1` (racemic) [PCV-TP, Penciclovir triphosphate], the concentration for half-maximal inhibition (IC50) stood at 4.3 µM. Besides, under “0.124 µM PCV-TP”, the inhibition at 0.124 µM is 4%. The “Incorporation of dGMP” value (0.124 µM PCV-TP, uninhibited control 88892) amounted to 85313 c.p.m. Besides, where the note is “1.24 µM PCV-TP”, the inhibition at 1.24 µM was 21.2%. Besides, the “Incorporation of dGMP” value (1.24 µM PCV-TP, uninhibited control 88892) is reported as 70061 c.p.m. For the setting “3.10 µM PCV-TP”, the inhibition at 3.1 µM came out at 41.7%. Further, the “Incorporation of dGMP” value (3.10 µM PCV-TP, uninhibited control 88892) stood at 51866 c.p.m. Also, the inhibition at 6.19 µM (6.19 µM PCV-TP) came to 63%. Also, where the note is “6.19 µM PCV-TP, uninhibited control 88892”, the “Incorporation of dGMP” value came to 32921 c.p.m. Besides, the inhibition at 9.29 µM (9.29 µM PCV-TP) turned out to be 70.3%. Moreover, the “Incorporation of dGMP” value (9.29 µM PCV-TP, uninhibited control 88892) turned out to be 26436 c.p.m. For the same compound, the inhibition at 12.39 µM (12.39 µM PCV-TP) was 73.2%. Further, under “12.39 µM PCV-TP, uninhibited control 88892”, the “Incorporation of dGMP” value came out at 23844 c.p.m.

The values above are taken from patent EP0538305B1, “P[…] F[…] RELATED GUANINE DERIVATIVES FOR THE TREATMENT OF THE HIV-1 INFECTIONS” (BEECHAM GROUP PLC, priority 1990, dated 1992).
